# From publication PMC10389753, “Rational Design of Chitin Deacetylase Inhibitors for Sustainable Agricultural Use Based on Molecular Topology” (Journal of Agricultural and Food Chemistry, 2022)
# Assays:
# PxCDA1 = molecular target: T1, PxCDA1 (Podosphaera xanthii, UniProt A0A6S4IFB1); assay: fluorescamine assay, colloidal chitin substrate; type: biochemical
# T1 construct: recombinant, N-terminal 6-His tag, expressed in E. coli
# Text: fluorescamine assay, colloidal chitin substrate on PxCDA1
# PxCDA2 = molecular target: T2, PxCDA2 (Podosphaera xanthii, UniProt A0A6S4IDJ3); assay: fluorescamine assay, colloidal chitin substrate; type: biochemical
# T2 construct: recombinant, N-terminal 6-His tag, expressed in E. coli
# T2 sequence (A0A6S4IDJ3 23-314 limits assumed): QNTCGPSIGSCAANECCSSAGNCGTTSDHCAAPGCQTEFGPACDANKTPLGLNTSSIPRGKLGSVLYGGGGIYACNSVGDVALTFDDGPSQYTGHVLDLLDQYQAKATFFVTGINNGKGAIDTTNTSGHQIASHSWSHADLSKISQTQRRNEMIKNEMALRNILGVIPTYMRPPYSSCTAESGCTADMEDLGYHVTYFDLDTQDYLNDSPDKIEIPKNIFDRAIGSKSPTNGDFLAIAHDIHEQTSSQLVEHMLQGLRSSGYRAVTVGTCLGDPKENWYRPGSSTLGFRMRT
# Text: fluorescamine assay, colloidal chitin substrate on PxCDA2
# T1 sequence (A0A6S4IFB1 23-324 limits assumed): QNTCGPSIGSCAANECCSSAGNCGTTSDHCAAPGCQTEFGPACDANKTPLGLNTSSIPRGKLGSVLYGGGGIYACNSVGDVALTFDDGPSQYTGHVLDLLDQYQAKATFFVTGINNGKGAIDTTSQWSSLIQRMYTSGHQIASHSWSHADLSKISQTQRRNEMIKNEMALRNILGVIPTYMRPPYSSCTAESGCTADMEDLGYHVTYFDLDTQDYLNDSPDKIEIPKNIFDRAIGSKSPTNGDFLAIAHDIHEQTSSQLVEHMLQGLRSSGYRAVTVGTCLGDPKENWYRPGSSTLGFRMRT
SMILES,inhibition at 100 µM (PxCDA1) [%],inhibition at 100 µM (PxCDA2) [%]
Cn1c(=O)n(CC(=O)O)c(=O)c2c1nc1n2CCS1 [VS#2-2],79.4,93
C=CCN1C(=O)NC(=O)/C(=C/c2ccc(OCC(=O)O)c(OC)c2)C1=O [VS#2-3],86.8,74.5
CN1C(=O)C(=Cc2cccc(OCC(=O)O)c2)C(=O)N(C)C1=O [VS#2-1],86.9,74.5
